ChEMBL document CHEMBL3132814, “Synthesis and biological evaluation of tetrahydropyridinepyrazoles (PFPs) as inhibitors of STAT3 phosphorylation” (2014)
The source made the active and inactive calls. The rule behind the calls is not given here.

Assays:
MCF7 = assay: Antiproliferative activity against human MCF7 cells assessed as inhibition of cell proliferation at 100 uM after 2 hrs by MTT assay; format: functional; conditions: MCF7, 2 h
HepG2 [1] = assay: Antiproliferative activity against human HepG2 cells assessed as inhibition of cell proliferation at 100 uM after 2 hrs by MTT assay; format: functional; conditions: for inhibition at 100 µM: HepG2, 2 h
Huh-7 [2] = assay: Antiproliferative activity against human HuH7 cells assessed as inhibition of cell proliferation after 24 to 72 hrs by MTT dye uptake assay; format: functional, cell-based
Huh-7 [3] = assay: Antiproliferative activity against human HuH7 cells assessed as inhibition of cell proliferation at 10 to 100 uM by MTT dye uptake assay; format: functional, cell-based; conditions: TDE = time-dependent effect
Hep 3B2 [4] = assay: Antiproliferative activity against human Hep3B cells assessed as inhibition of cell proliferation at 10 to 100 uM by MTT dye uptake assay; format: functional, cell-based; conditions: TDE = time-dependent effect
[5] = molecular target: Signal transducer and activator of transcription 3 (Homo sapiens) (UniProt P40763); assay: Inhibition of STAT3-DNA binding in human HepG2 cells at 10 uM after 6 hrs by ELISA based DNA binding assay; format: cell-based
Hep 3B2 [6] = assay: Antiproliferative activity against human Hep3B cells assessed as inhibition of cell proliferation after 24 to 72 hrs by MTT dye uptake assay; format: functional, cell-based
HepG2 [7] = assay: Antiproliferative activity against human HepG2 cells assessed as inhibition of cell proliferation after 24 to 72 hrs by MTT dye uptake assay; format: functional, cell-based
PLC-PRF-5 [8] = assay: Antiproliferative activity against human PLC/PRF/5 cells assessed as inhibition of cell proliferation after 24 to 72 hrs by MTT dye uptake assay; format: functional, cell-based
PLC-PRF-5 [9] = assay: Antiproliferative activity against human PLC/PRF/5 cells assessed as inhibition of cell proliferation at 10 to 100 uM by MTT dye uptake assay; format: functional, cell-based; conditions: TDE = time-dependent effect
HepG2 [10] = assay: Antiproliferative activity against human HepG2 cells assessed as inhibition of cell proliferation at 10 to 100 uM by MTT dye uptake assay; format: functional, cell-based; conditions: TDE = time-dependent effect
HCCLM3 [11] = assay: Inhibition of CXCL12-induced human HCCLM3 cells migration pretreated at 10 uM for 6 hrs by matrigel invasion assay; format: functional, cell-based
[12] = molecular target: Signal transducer and activator of transcription 3 (Homo sapiens) (UniProt P40763); assay: Inhibition of STAT3-DNA binding in human HepG2 cells after 6 hrs by ELISA based DNA binding assay; format: cell-based
HCCLM3 [13] = assay: Inhibition of human HCCLM3 cells migration at 10 uM for 6 hrs by matrigel invasion assay; format: functional, cell-based
HCCLM3 [14] = assay: Inhibition of CXCL12-induced human HCCLM3 cells migration pretreated at 10 uM for 6 hrs by wound-healing assay; format: functional, cell-based
[15] = molecular target: Signal transducer and activator of transcription 3 (Homo sapiens) (UniProt P40763); assay: Inhibition of STAT3 activation in human HepG2 cells assessed as inhibition of phosphorylation at tyrosine 705 at 10 uM by Western blot analysis; format: cell-based; conditions: TDE = time-dependent effect
[16] = molecular target: Signal transducer and activator of transcription 3 (Homo sapiens) (UniProt P40763); assay: Inhibition of STAT3 activation in human HepG2 cells assessed as maximal inhibition of phosphorylation at tyrosine 705 at 10 uM at 4 to 6 hrs by Western blot analysis; format: cell-based
HCCLM3 [17] = assay: Inhibition of human HCCLM3 cells migration at 10 uM for 6 hrs by wound-healing assay; format: functional, cell-based
[18] = molecular target: Proto-oncogene tyrosine-protein kinase Src (Homo sapiens) (UniProt P12931); assay: Inhibition of Src kinase activation in human HepG2 cells assessed as inhibition of phosphorylation at 10 uM by Western blot analysis; format: cell-based; conditions: TDE = time-dependent effect
PC-3 = assay: Antiproliferative activity against human PC3 cells assessed as inhibition of cell proliferation at 10 to 100 uM after 24 to 72 hrs by MTT assay; format: functional, cell-based
[19] = molecular target: Tyrosine-protein kinase JAK2 (Homo sapiens) (UniProt O60674); assay: Inhibition of JAk2 activation in human HepG2 cells assessed as inhibition of phosphorylation at 10 uM by Western blot analysis; format: cell-based; conditions: TDE = time-dependent effect
Sequence of Tyrosine-protein kinase JAK2 (Homo sapiens) (O60674 whole entry): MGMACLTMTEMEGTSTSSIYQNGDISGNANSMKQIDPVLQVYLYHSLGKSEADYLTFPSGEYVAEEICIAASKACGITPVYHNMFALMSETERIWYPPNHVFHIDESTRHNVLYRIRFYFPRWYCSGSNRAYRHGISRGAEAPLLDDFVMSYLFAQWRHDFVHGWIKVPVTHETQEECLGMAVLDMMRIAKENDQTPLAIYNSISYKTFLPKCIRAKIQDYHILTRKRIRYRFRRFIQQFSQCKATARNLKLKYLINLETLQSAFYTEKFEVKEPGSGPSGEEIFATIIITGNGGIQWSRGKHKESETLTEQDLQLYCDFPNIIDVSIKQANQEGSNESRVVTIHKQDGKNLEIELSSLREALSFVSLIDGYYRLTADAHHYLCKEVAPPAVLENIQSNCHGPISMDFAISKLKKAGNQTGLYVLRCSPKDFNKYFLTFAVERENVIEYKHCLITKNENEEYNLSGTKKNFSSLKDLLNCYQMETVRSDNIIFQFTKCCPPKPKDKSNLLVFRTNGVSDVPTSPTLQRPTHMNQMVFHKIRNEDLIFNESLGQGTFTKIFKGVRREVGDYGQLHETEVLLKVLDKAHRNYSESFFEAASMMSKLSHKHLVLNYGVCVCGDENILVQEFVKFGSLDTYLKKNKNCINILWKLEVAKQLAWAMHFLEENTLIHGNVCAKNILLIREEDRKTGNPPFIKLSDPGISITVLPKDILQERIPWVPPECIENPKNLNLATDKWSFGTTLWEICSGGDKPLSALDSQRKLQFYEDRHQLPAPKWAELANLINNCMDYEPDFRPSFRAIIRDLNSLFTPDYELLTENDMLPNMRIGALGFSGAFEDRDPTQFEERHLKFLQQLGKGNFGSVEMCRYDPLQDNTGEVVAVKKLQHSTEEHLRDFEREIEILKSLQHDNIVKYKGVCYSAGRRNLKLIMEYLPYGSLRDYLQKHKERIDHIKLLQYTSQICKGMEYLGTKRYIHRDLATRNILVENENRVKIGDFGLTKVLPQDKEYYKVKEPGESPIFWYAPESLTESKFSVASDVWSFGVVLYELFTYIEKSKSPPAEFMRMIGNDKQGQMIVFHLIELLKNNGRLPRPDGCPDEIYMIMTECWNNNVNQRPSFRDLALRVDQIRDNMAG

Sequence of Signal transducer and activator of transcription 3 (Homo sapiens) (P40763 whole entry): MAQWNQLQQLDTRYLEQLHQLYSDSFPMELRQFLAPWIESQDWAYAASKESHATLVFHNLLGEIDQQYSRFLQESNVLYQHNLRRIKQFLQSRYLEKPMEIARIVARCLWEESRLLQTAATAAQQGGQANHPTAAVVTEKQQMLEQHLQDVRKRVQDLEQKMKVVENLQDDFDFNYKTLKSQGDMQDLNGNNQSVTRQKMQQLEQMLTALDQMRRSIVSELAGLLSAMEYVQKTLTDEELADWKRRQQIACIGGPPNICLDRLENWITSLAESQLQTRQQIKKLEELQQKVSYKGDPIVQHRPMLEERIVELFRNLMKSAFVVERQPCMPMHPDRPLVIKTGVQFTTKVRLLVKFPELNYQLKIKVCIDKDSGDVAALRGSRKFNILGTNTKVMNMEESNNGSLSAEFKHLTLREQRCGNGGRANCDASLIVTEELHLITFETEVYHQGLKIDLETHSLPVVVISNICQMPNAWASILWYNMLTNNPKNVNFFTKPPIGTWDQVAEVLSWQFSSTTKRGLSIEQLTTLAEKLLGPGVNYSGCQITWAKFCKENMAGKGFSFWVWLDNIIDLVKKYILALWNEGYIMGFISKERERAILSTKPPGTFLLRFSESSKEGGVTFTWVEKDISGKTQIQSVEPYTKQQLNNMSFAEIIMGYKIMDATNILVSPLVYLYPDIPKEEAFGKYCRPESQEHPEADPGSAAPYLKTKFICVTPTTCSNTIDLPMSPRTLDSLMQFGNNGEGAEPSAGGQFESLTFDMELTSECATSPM
Sequence of Proto-oncogene tyrosine-protein kinase Src (Homo sapiens) (P12931 2-536 limits assumed): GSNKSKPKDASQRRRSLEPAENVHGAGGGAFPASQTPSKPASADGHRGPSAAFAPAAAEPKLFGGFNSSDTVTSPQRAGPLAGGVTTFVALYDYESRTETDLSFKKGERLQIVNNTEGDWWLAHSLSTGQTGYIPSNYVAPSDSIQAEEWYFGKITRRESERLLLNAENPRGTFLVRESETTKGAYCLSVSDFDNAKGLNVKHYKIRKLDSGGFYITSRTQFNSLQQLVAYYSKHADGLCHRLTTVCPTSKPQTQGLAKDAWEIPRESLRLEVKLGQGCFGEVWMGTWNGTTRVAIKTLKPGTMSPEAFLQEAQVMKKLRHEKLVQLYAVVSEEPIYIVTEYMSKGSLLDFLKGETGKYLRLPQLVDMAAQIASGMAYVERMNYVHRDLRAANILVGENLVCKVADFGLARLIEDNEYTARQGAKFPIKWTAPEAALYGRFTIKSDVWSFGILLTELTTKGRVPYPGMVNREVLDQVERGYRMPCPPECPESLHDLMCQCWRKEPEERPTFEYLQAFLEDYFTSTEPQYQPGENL

SMILES | inhibition at 100 µM (MCF7) | inhibition (HepG2 [1]) | inhibition (Huh-7 [2]) | inhibition (Huh-7 [3]) | inhibition (Hep 3B2 [4]) | inhibition at 100 µM (HepG2 [1]) | inhibition (Hep 3B2 [6]) | inhibition (HepG2 [7]) | inhibition (PLC-PRF-5 [8]) | inhibition (PLC-PRF-5 [9]) | inhibition (HepG2 [10]) | other results
C=CCN1Cc2c(nn(-c3ccc(Cl)cc3Cl)c2NS(=O)(=O)c2ccccc2)C(F)(F)C1c1ccc(OC)cc1 (stereo not given) | 85.3% | inactive |  |  |  |  |  |  |  |  |  | 
C=CCN1Cc2c(nn(-c3ccc(Cl)cc3Cl)c2NC(=S)Nc2ccc(C(F)(F)F)cc2)C(F)(F)C1c1ccc(OC)cc1 (stereo not given) | 84.1% |  | Dose-dependent effect | tde | tde | 85.1% | Dose-dependent effect | Dose-dependent effect | Dose-dependent effect | tde | tde | inhibition [5]: Active
C=CCN1Cc2c(nn(-c3ccc(Cl)cc3Cl)c2NS(=O)(=O)c2ccc(F)cc2)C(F)(F)C1c1ccc(OC)cc1 (stereo not given) | 78.8% | inactive |  |  |  |  |  |  |  |  |  | 
C=CCN1Cc2c(nn(-c3ccc(Cl)cc3Cl)c2NC(=O)Nc2ccccc2)C(F)(F)C1c1ccc(OC)cc1 (stereo not given) | 77.4% |  | Dose-dependent effect | tde | tde | 80% | Dose-dependent effect | Dose-dependent effect | Dose-dependent effect | tde | tde | inhibition (HCCLM3 [11]): Active; inhibition [12]: Dose-dependent effect; inhibition (HCCLM3 [13]): Active; inhibition (HCCLM3 [14]): Active; inhibition [15]: tde; inhibition [16]: Active; inhibition (HCCLM3 [17]): Active; inhibition [18]: tde; inhibition (PC-3): inactive; inhibition [19]: tde
